Measured values reported in patent US10576125B2, “Methods for enhancing synaptogenesis and neuritogenesis” (HOUGH EAR INSTITUTE, priority 2016, dated 2020).

Assays:
[1] = system: murine spiral ganglion (SG) tissue explants; experiment: Neuritogenesis in murine spiral ganglion explants; format: cell-based, mouse; conditions: for neurite outgrowth induced by exogenous neurotrophic factor: at 10 μM (so in the source) relative to untreated controls, FIG. 24B, FIG. 26B
PC12 cell line [2] = experiment: NGF-induced neuritogenesis in PC12 cells; format: cell-based
Description: This NGF-induced neuritogenic response was apparently saturable at concentrations at and above 10 ng/mL in this context.
FIG. 4 depicts the percentage of PC12 cells with significant neurite outgrowth. The pattern observed here is similar to that observed for treatment-induced increases in average neurite length. Taken together, these evaluations support the interpretation that HPN-07 acts in concert with NGF to promote both de novo neurite outgrowth and changes in the stability or assembly kinetics of neurites in such a manner as to support increases in mean neurite length, both of which are desirable features for re-innervation of IHCs.

[3] = system: IHC ribbon synapses in murine SGN-IHC co-culture; experiment: Kainic acid excitotoxic trauma in SGN-IHC co-culture; format: cell-based; conditions: for KA-induced shift of pre-synaptic densities from typical to apical distributions: quantitative evaluation
Description: The previous findings were applied to a murine SGN-IHC co-culture model of excitotoxic trauma. In IHCs of undamaged co-cultures of auditory sensory epithelia (organs of Corti, OC) and associated spiral ganglion neurons (NC), most of the pre-synaptic C-terminal binding protein 2 (CtBP2)-immunoreactive puncta (small red dots) are located in a “typical,” cytoarchitectural position, located along the basal surface of the cell, below or surrounding the IHC nucleus (large red spheres). A marked shift from this typical CtBP2 basal immunoreactivity pattern to a more apical distribution pattern occurred after exposure to the excitotoxic glutamate analog, kainic acid (KA). […] The ability of HPN-07 to restore the structural integrity of ribbon synapses among IHCs following an excitotoxic trauma in this co-culture model is consistent with HPN-07 acting to promote synaptogenesis (i.e., re-innervation) in this context.
FIG. 6 summarizes a quantitative evaluation from a targeted comparison of the number and spatial distribution of ribbons among IHCs from untreated, BDNF-treated, or HPN-07-treated explants following excitotoxic exposure to KA. […] Each data point represents a composite of approximately ten independent measurements.

noise-damaged chinchilla = experiment: Live animal study in noise-damaged chinchilla; format: in vivo
PC12 cell line [4] = conditions: cited from earlier work

## 2,4-disulfonyl α-phenyl tertiary butyl nitrone [HPN-07]
[1]; BDNF 10 ng/mL + HPN-07 0.1 μM, 48 hours, serum-free medium, FIG. 2
  potentiation of BDNF-induced neuritogenesis: potentiated neuritogenesis
[1]; HPN-07 alone vs untreated controls (NC), FIG. 1
  neurite outgrowth (number and length of neurites) from SG explants: induced marked neurite outgrowth
[1]; organotypic cultures of mouse spiral ganglion neurons
  concentration sufficient to induce a neuritogenic response: 100 µM
[1]; with BDNF 10 ng/ml, FIG. 24
  number and extent of nerve fibers in addition to BDNF: greatly increased the number and extent of nerve fibers
[1]; with NT-3 10 ng/ml, FIG. 26
  NT-3 induced neuritogenesis: enhanced
PC12 cell line [2]; 1 μM HPN-07 + 10 ng/mL NGF, 6 days, FIG. 3
  mean neurite lengths: markedly surpassed the maximum lengths achieved in the saturable NGF dose-escalation series
PC12 cell line [2]; 1 μM HPN-07 + 1 and 5 ng/mL NGF, 6 days, FIG. 3
  NGF-mediated neuritogenesis (mean neurite length): enhances
PC12 cell line [2]; HPN-07 + escalating doses of NGF, FIG. 4
  percentage of PC12 cells bearing neurites: significantly enhanced NGF-induced neuritogenesis
PC12 cell line [2]; low concentrations, no NGF
  neurite length, HPN-07 alone: did not increase neurite length
[3]; SGN-HC co-cultures following KA
  neurite densities along the base of IHCs: increased neurite densities along the base of IHCs
[3]; after KA, compared with BDNF, FIG. 6
  number of total ribbons among IHCs: greater number of total ribbons
[3]; post-excitotoxic treatment, 10 μM, FIG. 5
  KA-induced apical shift of CtBP2 puncta and loss of PSD-95 co-labeling (IHC ribbon synapse integrity): reversed this pathologic shift
[3]; FIG. 6
  KA-induced shift of pre-synaptic densities from typical to apical distributions: reversed this pathologic change
noise-damaged chinchilla; long after the duration of treatment
  functional recovery: progressive degree of functional recovery
noise-damaged chinchilla; relative to untreated controls
  inner hair cell neurite populations: significantly greater inner hair cell neurite populations

## CC(C)(C)[N+]([O-])=Cc1ccccc1 [PBN, alpha-phenyl N-tertiary-butyl nitrone]
PC12 cell line [4]
  concentration required for inducing neuritogenesis in PC12 cells: 10 mM

## NGF: Nerve growth factor
PC12 cell line [2]; NGF alone
  concentrations at which the NGF-induced neuritogenic response is saturable: ≥ 10 ng/mL
  neurite elongation: induced neurite elongation in a dose-dependent manner

B1: BDNF: Brain-derived neurotrophic factor, the canonical cochlear neuritogenic growth factor (protein, UniProt P23560 19-247, looked up)
Neurotrophic factor BDNF …: APMKEANIRGQGGLAYPGVRTHGTLESVNGPKAGSRGLTSLADTFEHVIEELLDEDQKVRPNEENNKDADLYTSRVMLSSQVPLEPPLLFLLEEYKNYLDAANMSMRVRRHSDPARRGELSVCDSISEWVTAADKKTAVDMSGGTVTVLEKVPVSKGQLKQYFYETKCNPMGYTKEGCRGIDKRHWNSQCRTTQSYVRALTMDSKKRIGWRFIRIDTSCVCTLTIKRGR
[1]
  neurite outgrowth induced by exogenous neurotrophic factor: induced significant neurite outgrowth
[3]; FIG. 6
  KA-induced shift of pre-synaptic densities from typical to apical distributions: reversed this pathologic change

B2: NT-3: inherent neurotrophic factor in the inner ear, essential for development and survival of cochlear spiral ganglions (protein, UniProt P20783 139-257, looked up)
Neurotrophin-3: YAEHKSHRGEYSVCDSESLWVTDKSSAIDIRGHQVTVLGEIKTGNSPVKQYFYETRCKEARPVKNGCRGIDDKHWNSQCKTSQTYVRALTSENNKLVGWRWIRIDTSCVCALSRKIGRT
[1]
  neurite outgrowth induced by exogenous neurotrophic factor: induced significant neurite outgrowth
